According to patent publication US20170157212A1, “CDK MODULATORS AND METHODS FOR THE TREATMENT OF CANCER” (Salk Institute for Biological Studies, priority 2015, published 2017):
“Also recorded” adds a separate entry of the source.

What was measured:
CDK9 = molecular target: T1, CDK9 (Homo sapiens, UniProt P50750); assay: Co-immunoprecipitation of CRIF1 with CDK9; type: binding
T1 construct: endogenous in cells
Text: (§1) FIGS. 5A-5I. The Mitochondrial OX-PHOS Regulator, CRIF1, is a Novel Subunit of the Human CDK12 Kinase Complex. (A) Identification of CRIF1 as a near-stoichiometric subunit of the native CDK12 kinase complex. MudPIT analysis of CDK12 complexes from HEK293 cells that stably express HA-tagged full-length human CDK12. The HA-CDK12 complex was affinity-purified using anti-HA antibody and visualized by SDS-PAGE and silver-stain. (B) List of the identified proteins in the HA-CDK12 complex from (A). (C) Endogenous CRIF1 co-immunoprecipitates with native CDK12 in U2OS cell extracts. Shown is an immunoblot analysis of CRIF1, CCNK, and the chaperone proteins CDC37 and HSP90 in an anti-CDK12 immunoprecipitate. (D) CRIF1 is a specific subunit of the CDK12 complex. Native CRIF1 was immunoprecipitated from U2OS cells using an anti-CRIF1 antibody and analyzed by co-immunoprecipitation for association with various CDKs, as indicated. […] FLAG-CRIF1 proteins containing different C-terminal truncations were co-expressed with HA-CDK12 (aa 985-1490) and analyzed for binding by co-immunoprecipitation and immunoblot. […] Cell viability was analyzed after 72 hr. […] Expression of the mitochondrial MTCO-1 (COX1) protein was assessed using two different antisera. […] Each fraction (T; total, C:cytosolic, M:membrane/organelle, and N:nuclear) was analyzed by immunoblot using the indicated antibodies. […]

CDK7 = molecular target: T2, CDK7 (Homo sapiens, UniProt P50613); assay: Co-immunoprecipitation of CRIF1 with CDK7; type: binding
T2 construct: endogenous in cells
Text: as §1

CDK12 = assay: In vitro kinase assay: CDK12 phosphorylation of recombinant 4E-BP1 (S65, T70); type: biochemical, human; details: reactions with CDK12 and mTORC1/Raptor, dose-dependent
Text: (A) CRIF1 and CDK12 have opposite effects on global RNAPII CTD-Ser2P levels in vivo. U2OS cells were transfected with indicated siRNAs for 48 hr, and RNAPII phosphorylation was monitored by immunoblot using phospho-specific CTD (Ser2P and Ser5P) antibodies. (B) Knockdown of CRIF1 up-regulates CHK1 expression and induction of p53. […] (C) Analysis of steady-state mRNA levels by qRT-PCR in extracts from U2OS cells exposed to control (CTL) or CRIF1-specific siRNAs, as indicated. (D) Depletion of CRIF1 enhances 4E-BP1 phosphorylation at S65 and T70 in vivo, as assessed by immunoblot using phospho-specific antibodies. (E) CRIF1 inhibits RNAPII CTD-Ser2 phosphorylation by CDK12 complexes in vitro. The human GST-CTD (52 repeat) protein was incubated in vitro with the affinity-purified HA-CDK12 kinase complex in the absence or presence of increasing levels of purified recombinant CRIF1, and analyzed by immunoblot with the indicated antisera. […] Analysis of GST-CTD Ser2 phosphorylation was carried out as described in (E), using the affinity-purified FLAG-CDK9 kinase. (G) CRIF1 inhibits 4E-BP1 phosphorylation by CDK12 in vitro. […] was monitored by immunoblot in the absence or in the presence of different levels of affinity-purified recombinant CRIF1. […]

CDK2 = molecular target: T3, CDK2 (Homo sapiens, UniProt P24941); assay: Co-immunoprecipitation of CRIF1 with CDK2; type: binding
T3 construct: endogenous in cells
Text: as §1

CDK12, sequence (Q9NYV4 whole entry): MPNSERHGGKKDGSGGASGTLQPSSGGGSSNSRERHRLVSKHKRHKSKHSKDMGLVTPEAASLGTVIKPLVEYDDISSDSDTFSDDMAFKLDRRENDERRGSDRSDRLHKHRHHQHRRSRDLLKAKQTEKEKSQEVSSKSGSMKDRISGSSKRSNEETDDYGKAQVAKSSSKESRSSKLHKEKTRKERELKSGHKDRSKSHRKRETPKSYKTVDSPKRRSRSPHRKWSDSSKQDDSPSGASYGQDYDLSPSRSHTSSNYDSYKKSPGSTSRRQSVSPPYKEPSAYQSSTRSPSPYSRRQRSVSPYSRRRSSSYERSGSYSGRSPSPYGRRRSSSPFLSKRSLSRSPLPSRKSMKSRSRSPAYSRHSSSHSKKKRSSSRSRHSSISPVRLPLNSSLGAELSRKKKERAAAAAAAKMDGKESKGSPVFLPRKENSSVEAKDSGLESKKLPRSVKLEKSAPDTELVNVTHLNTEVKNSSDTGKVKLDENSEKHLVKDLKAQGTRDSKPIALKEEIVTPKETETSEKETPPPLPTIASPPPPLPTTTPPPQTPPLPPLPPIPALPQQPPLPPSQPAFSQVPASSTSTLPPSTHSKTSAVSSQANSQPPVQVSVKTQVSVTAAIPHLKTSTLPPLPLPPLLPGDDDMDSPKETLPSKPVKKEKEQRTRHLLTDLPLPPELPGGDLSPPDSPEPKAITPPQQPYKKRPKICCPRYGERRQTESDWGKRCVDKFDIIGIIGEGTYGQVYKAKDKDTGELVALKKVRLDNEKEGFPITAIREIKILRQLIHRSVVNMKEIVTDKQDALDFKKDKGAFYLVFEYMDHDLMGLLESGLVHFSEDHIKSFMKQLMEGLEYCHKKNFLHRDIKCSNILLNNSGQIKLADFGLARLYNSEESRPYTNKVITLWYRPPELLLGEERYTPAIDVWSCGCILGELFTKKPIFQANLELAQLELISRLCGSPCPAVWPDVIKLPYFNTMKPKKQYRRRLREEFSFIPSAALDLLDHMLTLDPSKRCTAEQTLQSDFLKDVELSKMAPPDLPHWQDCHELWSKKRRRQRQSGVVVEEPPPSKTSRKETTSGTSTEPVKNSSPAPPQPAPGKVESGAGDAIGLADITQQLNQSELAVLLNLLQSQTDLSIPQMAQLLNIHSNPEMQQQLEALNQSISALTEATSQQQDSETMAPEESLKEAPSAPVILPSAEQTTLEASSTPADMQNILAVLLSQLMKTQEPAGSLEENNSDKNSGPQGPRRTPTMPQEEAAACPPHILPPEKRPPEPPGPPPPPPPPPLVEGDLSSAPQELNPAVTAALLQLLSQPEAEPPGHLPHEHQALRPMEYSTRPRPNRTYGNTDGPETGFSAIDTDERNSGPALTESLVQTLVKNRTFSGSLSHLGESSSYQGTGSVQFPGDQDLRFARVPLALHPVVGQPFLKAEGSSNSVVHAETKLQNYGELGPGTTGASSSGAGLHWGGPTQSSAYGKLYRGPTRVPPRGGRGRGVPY
CDK12, sequence (O75909 whole entry partner): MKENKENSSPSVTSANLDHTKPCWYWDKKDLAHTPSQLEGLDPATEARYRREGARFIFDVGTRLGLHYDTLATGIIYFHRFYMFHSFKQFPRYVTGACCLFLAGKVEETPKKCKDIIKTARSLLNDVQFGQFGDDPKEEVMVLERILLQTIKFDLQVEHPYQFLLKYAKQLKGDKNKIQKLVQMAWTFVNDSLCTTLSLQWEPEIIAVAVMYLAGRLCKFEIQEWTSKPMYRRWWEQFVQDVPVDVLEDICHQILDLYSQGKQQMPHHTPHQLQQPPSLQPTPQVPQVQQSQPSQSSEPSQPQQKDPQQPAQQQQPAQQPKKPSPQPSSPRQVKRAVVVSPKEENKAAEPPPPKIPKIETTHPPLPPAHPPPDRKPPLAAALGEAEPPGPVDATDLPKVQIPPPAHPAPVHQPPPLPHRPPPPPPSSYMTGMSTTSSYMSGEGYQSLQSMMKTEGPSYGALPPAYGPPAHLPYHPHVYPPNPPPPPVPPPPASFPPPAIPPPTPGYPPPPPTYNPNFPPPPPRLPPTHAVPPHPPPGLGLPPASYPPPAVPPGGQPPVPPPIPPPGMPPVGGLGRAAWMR
T2 sequence (P50613 whole entry): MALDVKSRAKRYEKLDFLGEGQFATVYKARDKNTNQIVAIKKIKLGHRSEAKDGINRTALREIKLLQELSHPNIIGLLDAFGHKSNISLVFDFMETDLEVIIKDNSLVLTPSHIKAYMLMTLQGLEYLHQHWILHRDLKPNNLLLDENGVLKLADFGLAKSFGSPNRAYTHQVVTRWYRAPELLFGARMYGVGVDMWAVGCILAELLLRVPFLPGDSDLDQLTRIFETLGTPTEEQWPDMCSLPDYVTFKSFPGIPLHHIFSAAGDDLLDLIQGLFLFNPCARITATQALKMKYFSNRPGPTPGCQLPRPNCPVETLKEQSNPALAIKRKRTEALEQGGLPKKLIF
T1 sequence (P50750 whole entry): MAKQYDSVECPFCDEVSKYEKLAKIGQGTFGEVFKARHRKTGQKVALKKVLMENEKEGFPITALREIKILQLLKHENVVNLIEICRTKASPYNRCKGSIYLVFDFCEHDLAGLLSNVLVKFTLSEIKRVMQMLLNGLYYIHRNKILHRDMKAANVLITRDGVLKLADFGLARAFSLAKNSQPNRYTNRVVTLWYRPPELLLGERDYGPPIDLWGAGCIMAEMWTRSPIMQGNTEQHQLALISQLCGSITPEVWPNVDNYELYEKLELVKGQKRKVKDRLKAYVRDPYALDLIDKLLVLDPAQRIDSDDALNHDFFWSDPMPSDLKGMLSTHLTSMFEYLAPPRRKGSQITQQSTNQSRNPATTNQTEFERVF

S65 and T70 phosphorylation of 4E-BP1 by CDK12 (CDK12): inhibits
S65 and T70 phosphorylation of 4E-BP1 by CDK12 (CDK12; listed as rCRIF1): potently and selectively inhibited
Substance: Growth Arrest and DNA Damage-Inducible Proteins-Interacting Protein 1 [CRIF1]
presence in / binding to CDK9 complexes (CDK9): not present; also recorded: does not bind
presence in / binding to CDK7 complexes (CDK7): not present; also recorded: does not bind
presence in / binding to CDK2 complexes (CDK2): not present; also recorded: nor was binding to Cdk2 detected
